Patent publication US8143237B2, “Anti-cancer drugs, and uses relating for malignant melanoma and other cancers” (Kasina Laila Innova Pharmaceuticals Private Limited, priority 2009, dated 2012)
In brackets after ≈: the same amount, converted by molar mass.

Key:
[1] = system: human malignant melanoma A375 cells; assay: MTT based cell proliferation assay, A375 cells; conditions: A-375, 72 h, at 10 μg/ml, three days
Protocol: (§1) The cytotoxic efficacies of the various selenopheno triazene compounds (compounds 1 to 16) was evaluated in both human malignant melanoma A375 cells and mouse malignant melanoma B16 F0 cells by MTT cell proliferation assay kit (Roche Applied Sciences, Germany). The assay was carried out according to the instruction provided by the vendor. Briefly, equal numbers of cells was plated in 96-well flat-bottomed plates and were incubated with both DTIC and the test compounds (compounds 1 to 16) at various concentrations for a period of three days. […] Finally, the cells were solubilized by adding solubilizing solution and allowed to incubate at 37° C. overnight. After complete solubilization of the formazan crystals, the absorbance was read at 540 nm in a microplate reader (BioRad, USA).

[2] = system: mouse malignant melanoma B16 F0 cells; assay: MTT based cell proliferation assay, B16 F0 cells; conditions: Mus musculus, B16F0, 72 h, MTT; for inhibition at 100 µg/mL: at 100 μg/ml; for inhibition at 100 µg/mL / inhibition at 60 µg/mL: three days; for inhibition at 60 µg/mL: at 60 μg/ml
Protocol: as §1

Row | SMILES | melting point | inhibition at 10 µg/mL [1] | inhibition at 100 µg/mL [2] | inhibition at 60 µg/mL [2] | IC50 ([2]; three days incubation, read-out: Cell proliferation inhibition in B16F0 cells, IC50)
1 | CN(C)/N=N/c1cc(C(N)=O)[se]c1C(N)=O [Compound 2, 3-[(dimethylamino)diazenyl]selenophene-2,5-dicarboxamide] | 266 to 268 °C |  |  |  | 
2 | CN(C)/N=N/c1cc(-c2ccccc2)[se]c1C(N)=O [Compound 3, 3-[(dimethylamino)diazenyl]-5-phenylselenophene-2-carboxamide] | 222 to 224 °C | 14% | 30% |  | 
3 | CN(C)/N=N/c1cc(C(C)(C)C)[se]c1C(N)=O [Compound 4, 3-[(dimethylamino)diazenyl]-5-(tert-butyl)selenophene-2-carboxamide] | 218 to 220 °C | 0.5% |  | 34% | 
4 | CN(C)/N=N/c1c(C(N)=O)[se]c2c1CCCC2 [Compound 5, 3-[(dimethylamino)diazenyl]-4,5,6,7-tetrahydrobenzo[1,2-b]selenophene-2-carboxamide] | 198 to 202 °C |  |  | 0.41% | 
5 | CN(C)/N=N/c1c(C(N)=O)[se]c2ncccc12 [Compound 6, 3-[(dimethylamino)diazenyl]selenopheno[2,3-b]pyridine-2-carboxamide] | 230 to 232 °C |  |  | 4% | 
6 | CN(C)/N=N/c1cc(-c2ccccc2)[se]c1C(=O)O [Compound 7, 3-[(dimethylamino)diazenyl]-5-phenylselenophene-2-carboxylic acid] | 212 to 214 °C |  | 5% |  | 
7 | CN(C)/N=N/c1cc(C(C)(C)C)[se]c1C(=O)O [Compound 8, 3-[(dimethylamino)diazenyl]-5-(tert-butyl)selenophene-2-carboxylic acid] | 120 to 122 °C | 24% |  |  | 43.6 µg/mL (≈ 144 µM)
8 | CN(C)/N=N/c1c(C(=O)O)[se]c2c1CCCC2 [Compound 9, 3-[(dimethylamino)diazenyl]-4,5,6,7-tetrahydrobenzo[1,2-b]selenophene-2-carboxylic acid] | 100 to 102 °C |  |  | 32% | 
9 | CN(C)/N=N/c1c(C(=O)O)[se]c2ncccc12 [Compound 10, 3-[(dimethylamino)diazenyl]selenopheno[2,3-b]pyridine-2-carboxylic acid] | 172 to 174 °C |  |  | 12% | 
10 | CN(C)/N=N/c1cc(C(C)(C)C)[se]c1C#N [Compound 11, 3-[(dimethylamino)diazenyl]-5-(tert-butyl)selenophene-2-carbonitrile] | 58 to 60 °C |  |  | 48% | 
11 | Cn1nnc2cc(-c3ccccc3)[se]c2c1=O [Compound 12, 3-methyl-6-phenylselenopheno[3,2-d]1,2,3-triazin-4-one] | 232 to 234 °C |  | 27% |  | 
12 | Cn1nnc2cc(C(C)(C)C)[se]c2c1=O [Compound 13, 6-(tert-butyl)-3-methylselenopheno[3,2-d]1,2,3-triazin-4-one] | 98 to 100 °C |  |  | 33% | 
13 | Cn1nnc2c3c([se]c2c1=O)CCCC3 [Compound 14, 3-methyl-6,7,8,9-tetrahydrobenzo[1,2-b]1,2,3-triazino[4,5-d]selenophen-4-one] |  |  |  | 17% | 
14 | Cn1nnc2c([se]c3ncccc32)c1=O [Compound 15, 3-methyl-1,2,3-triazino[4′,5′-5,4]selenopheno[2,3-b]pyridine-4-one] | 202 to 204 °C |  |  |  | 
15 | Cn1nnc2c([se]c3ccccc32)c1=O [Compound 16, 3-methylbenzo[b]1,2,3-triazino[4,5-d]selenophen-4-one] | 190 to 192 °C |  |  | 31% | 
